Assay results taken from article PMC8675869, “Oral Efficacy of a Diselenide Compound Loaded in Nanostructured Lipid Carriers in a Murine Model of Visceral Leishmaniasis” (ACS Infectious Diseases, 2021).
Converted amounts (≈) assume the structure as drawn.

Assays:
[1] = parameters: method as in PMID 20643750; conditions: mice, administration for 13 weeks; cited from earlier work
[2] = In vitro hepatic microsomal metabolism; assay type: in vitro ADME, BALB/c mice; conditions: BALB/c; mouse liver microsomes 0.5 mg protein/mL, 500 μM compound, NADPH, 37 °C; read-out: microsomal stability t1/2 (converted)
Description: Liver microsomes were isolated as previously described with minor modifications.[57] Mouse livers were removed and rinsed with 0.9% (w/v) NaCl solution. Then, livers were homogenized in ice-cold 0.25 M sucrose in 0.1 M PBS (pH 7.5). After 20 min of centrifugation at 9000 × g, the supernatant was ultracentrifuged at 100,000 × g for 1 h at 4 °C. The obtained microsome pellet was washed with 0.05 M PBS (pH 7.5) followed by another ultracentrifugation at 100,000 × g for 1 h at 4 °C. Microsomes were resuspended in 20% glycerol–0.1 M PBS and stored at −80 °C until use. Protein concentration was measured by microBCA kit (Thermo Scientific). […] Controls without hepatic cofactor and blanks without compounds were also analyzed. Metabolism was determined at 0, 0.1, 0.25, 0.5, 1, 1.5, and 2 h by the addition of an equal volume of ice-cold ACN, and samples were centrifuged at 9000 × g for 10 min. Supernatants were stored at −20 °C until high liquid performance chromatography (HPLC) quantification analysis at 290 nm, as described in the Supporting Information. Results are expressed as mean ± SD of at least three replicates. […] The rate of microsomal intrinsic clearance (Clint,micr, mL·min^–1·kg^–1) was then calculated following eq 1([27]) [drawing 1] […]
The calculated Clint,micr was used for the prediction of in vivo intrinsic hepatic clearance (Clint) using eq 2 and suitable scaling factors[27] […]

[3] = Solubility in fasted simulated intestinal fluid (FaSSIF); assay type: physicochemical; conditions: thermodynamic from solid, fasted simulated intestinal fluid pH 6.5, 4 h, r.t., as Se content, read-out: solubility in SSIF
Description: This experiment determines the solubility of a solid compound in fasted simulated intestinal fluid (FaSSIF) at pH 6.5 after 4 h of equilibration at r.t.[58] In brief, 1 mL of FaSSIF (3 mM sodium taurocholate and 0.75 mM lecithin in sodium phosphate buffer at pH 6.5) was added to 2 mg of the solid compounds. The resulting suspensions were shaken at 900 rpm for 4 h at r.t. Then, they were centrifuged at 12,600 × g for 10 min. The amount of selenocompounds, as selenium (Se) content, remaining in the supernatant was quantified by graphite atomic absorption spectrometry, as described in the Supporting Information. Results are expressed as mean ± SD of three replicates.

[4] = Ex vivo intestinal permeability (Ussing chamber); assay type: in vitro ADME, Wistar rats; conditions: rat jejunum, mucosal-to-serosal, as Se content; for Papp at 2 h, 5 mM: female, Wistar, rat, pH 7.4, free compounds; for intestinal permeability Papp: free compounds
Description: Intestinal permeation experiments were performed by using the Ussing chamber method as previously described.[59] Wistar female rats were fasted for 16 h with free access to water before the experiment. Rats were anesthetized with isoflurane and sacrificed by cervical dislocation. Jejunum was aseptically extracted, excised in 2 cm segments avoiding Peyer’s patches, and placed in cold 0.9% NaCl solution. Jejunum segments were anchored into the Ussing chambers. All experiments were realized from the apical side or donor compartment (DC) to the basolateral or receptor (RC) direction. For 2h and 2m compounds experiments, 5 mL of deionized water at pH 7.4 containing 4% (w/v) D-α-tocopherol polyethylene glycol 1000 succinate, and 5% (w/v) PEG 400 was added to both compartments to ensure sink conditions. In the case of NLC, 5 mL of PBS was used in both compartments. Chambers were continuously oxygenated and maintained at 37 °C. After 10 min of preincubation, the solution in the DC was replaced by 5 mL of either 2h and 2m solutions (final concentration of 5 mM) or their lyophilized NLC diluted in PBS at a 1 mM (in selenocompound concentration). Samples of 500 μL were collected from the RC every 20 min up to 2 h and replaced by an equal volume of the RC solution. Samples were frozen at −20 °C until analysis. The membrane integrity was evaluated by the addition of yellow lucifer to the DC and the determination of its fluorescence at the end of the experiment.[60] Experiments were carried out in triplicate for each compound and formulation. Se content in the RC was analyzed by flame atomic absorption spectrometry, as explained in the Supporting Information. The apparent permeability coefficient per unit membrane surface area (Papp (cm/s)), expressed as mean ± SD, was calculated according to eq 3 [drawing 3] 3 where dQ/dt was the steady-flux (mg/s), C0 was the initial compound concentration in the DC (mg/mL), and A was the surface area of the membrane (cm^2). It has been stablished that, in general, compounds with Papp > 1 × 10^–6 cm/s are well-absorbed in the human intestinal tract whereas Papp < 1 × 10^–6 cm/s are correlated with poor absorption.[32]

[5] = In vitro release from NLC in SGF and SIF; assay type: physicochemical; conditions: cumulative Se release
Description: The release studies of compounds 2h and 2m were performed at 37 °C using simulated gastric fluid (SGF, pH 1.2, pepsin 0.32% (w/v)) and simulated intestinal fluid (SIF, pH 6.8, pancreatin 1% (w/v)) with 2% v/v PEG 400, 5% w/v D-α-tocopherol polyethylene glycol 1000 succinate and 2.5% v/v DMSO added to ensure sink conditions. The dialysis membranes (with 100 kDa pore size) were filled with 30 mg of lyophilized formulations either 2h-NLC or 2m-NLC (corresponding to around 60 μg of the selenocompounds) dispersed in 1 mL of distilled water. The loaded dialysis membranes were placed into a beaker containing 25 mL of SGF. The simulated fluid was kept under magnetic stirring at 150 rpm, and at fixed times 0.250 mL samples were withdrawn and replaced with an equal volume of SGF. Two hours after the incubation in SGF, the device was transferred to another beaker containing 25 mL of SIF magnetically stirred at 150 rpm. As previously, at fixed times, samples were withdrawn and replaced with free SIF. The in vitro release study finished 24 h after the experiment began. The amount of Se released from the nanocarriers was determined by graphite atomic absorption spectrometry, as described in the Supporting Information. Results are expressed as mean ± SD of at least three replicates.

[6] = Single-dose pharmacokinetic study in mice (plasma Se); conditions: BALB/c, mouse, in vivo, ip, 4 mg/kg
Description: A single-dose pharmacokinetic study of 2h, 2m, 2h-NLC, and 2m-NLC were evaluated in mice after i.p. (free drugs) or oral administration (free drugs and loaded into NLC). The dose (4 mg/kg) was selected taking into account LD50 obtained after i.p. administration of the compounds. Blood was collected from the submandibular plexus at different time points: 0, 0.25, 0.5, 1, 2, 4, 8, 24, and 48 h. Collected whole blood samples were centrifuged at 3000 × g for 10 min at 4 °C. The obtained plasma samples were stored at −80 °C until quantification of the drug by graphite atomic absorption spectroscopy, as described in the Supporting Information. Experiments were carried out in triplicate for each compound and formulation. Pharmacokinetic parameters were estimated by fitting the experimental data to a noncompartimental model (NCA) using PKsolver Excel program.[62] The analyzed parameters were as follows: Area under concentration–time curve (AUC), maximum serum concentration (Cmax), clearance (Cl), time of maximum concentration (tmax), mean residence time (MRT), and product half-life (t1/2). The extraction rate (ER) was calculated as the ratio between systemic blood clearance and mouse hepatic blood flow (considered 90 mL·min^–1·kg^–1). […]

[7] = Acute toxicity, Up-and-Down procedure (OECD 425), i.p.; conditions: mouse, in vivo, ip, 17.5 mg/kg, mice
Description: Acute toxicity was carried out following the Up-and-Down procedure proposed by the OECD 425.[61] Three mice were treated with a dose of 17.5 mg/kg of each compound, 2h and 2m, administered by i.p. route. If all the mice died, 1/3 of the dose was administered to other new three mice. If all of them survived, the dose was tripled. If one or two of them died, the same dose was administered to one or two mice more. Both compounds were solubilized in PEG 400:H2O:D-α-tocopherol polyethylene glycol 1000 succinate (60:38.4:1.6, v/v/w).

[8] = system: Salmonella typhimurium (TA1535/pSK1002 strain); assay: SOS/UMU genotoxicity test; assay type: cell-based; conditions: with or without metabolic activation, highest concentration 1 mg/mL
Description: Salmonella typhimurium (TA1535/pSK1002 strain) (DSMZ, Germany) was employed to determine the genotoxic potential of the compounds 2h and 2m and some of their possible metabolites, as previously described.[56] Bacteria were exposed to different concentrations of compounds either with or without metabolic activation (S9 mix, Mutazyme) to determine the bacterial survival percentage, calculated by measuring the absorbance at 600 nm. Afterward, the β-galactosidase activity was conducted using a colorimetric method employing o-nitrophenyl-β-D-galactopiranoside (ONPG) as a substrate. Genotoxicity activity was measured in terms of β-galactosidase activity calculating an induction factor (IF) relative to the negative control (i.e., bacteria exposed to the solvent) and positive controls (4-nitroquinoline for normal treatments and 2-aminoantracen for S9 metabolic activated treatments). A compound was considered genotoxic for IF values ≥2 at noncytotoxic concentration (i.e., bacterial survival ≥80%). The experiment was considered valid for positive controls if IF ≥ 2.

[9] = Solubilizing capability of Transcutol for the compounds; assay type: physicochemical; conditions: Transcutol as solvent
[10] = target: trypanothione reductase (TR); parameters: method as in PMID 33046492; conditions: concentration that inhibits TR activity by 50%; read-out: TR inhibition IC50; cited from earlier work
THP-1 cells = conditions: read-out: THP-1 cells CC50; concentration that kills cells by 50%; cited from earlier work
[11] = cited from earlier work
[12] = parameters: method as in PMID 25016034; conditions: daily oral administration for 90 days; cited from earlier work
[13] = after 4 h of incubation in SIF (following 2 h SGF)
[14] = first 2 h of incubation in SGF, 37 °C, sink conditions

Molecule | NOAEL [1] [g/kg/day] | half-life at 500 μM [2] [h] | solubility at 4 h [3] [µg/mL] | Papp at 2 h, 5 mM [4] [×10⁻⁶ cm/s] | intestinal permeability Papp [4] | compound released from NLC [5, 13] | compound released from NLC [5, 14] [%] | ER (extraction ratio) [6] | LD50 [7] [mg/kg] | genotoxicity (SOS/UMU test) [8] | amount of compound dissolved in Transcutol [9] | IC50 [10] [µM] | CC50 (THP-1 cells) [µM] | logP [11] | no observed adverse effect level (NOAEL) [12] [mg/kg/day]
Polysorbate 80 [Tween 80] | 10 | – | – | – | – | – | – | – | – | – | – | – | – | – | –
O=C(Nc1ccc([Se][Se]c2ccc(NC(=O)c3ccco3)cc2)cc1)c1ccco1 [2h, N,N′-(4,4′-diselanediylbis(4,1-phenylene))bis-furan-2-carboxamide] | – | 1.7 | 3.2 ± 1.7 (≈ 6.03 µM) | ~0.717 | 7.2 ± 2.6 (×10^–7) cm/s | around 13% | 5.5 ± 3.1 | <0.3 | 17.5 | did not produce cytotoxicity and DNA damage | up to 6 mg of compound in 0.4 g | 14 ± 0.9 | > 50 | 1 | –
O=C(Nc1ccc([Se][Se]c2ccc(NC(=O)c3cccc4ccccc34)cc2)cc1)c1cccc2ccccc12 [2m, N,N′-(4,4′-diselanediylbis(4,1-phenylene))bisnaphthamide] | – | 1.2 | 2.5 ± 0.5 (≈ 3.84 µM) | ~0.591 | 5.9 ± 1.1 (×10^–7) cm/s | ~10% | 3.9 ± 0.3 | – | 17.5 | did not produce cytotoxicity and DNA damage | up to 6 mg of compound in 0.4 g | 5.5 ± 0.1 | > 50 | 5 | –
CCOCCOCCO [Transcutol, diethylene glycol monoethyl ether] | – | – | – | – | – | – | – | – | – | – | – | – | – | – | 850 to 1000
